Test results taken from ChEMBL document CHEMBL1137551, “Estrogen receptor dependent inhibitors of NF-kappaB transcriptional activation-1 synthesis and biological evaluation of substituted 2-cyanopropanoic acid derivatives: pathway selective inhibitors of NF-kappaB, a potential treatment for rheumatoid arthritis” (J Med Chem, 2007).
Active and inactive are the calls of the source. No cut-off for these calls is given here.

How the values were obtained:
HAECT1 [1] = assay: Inhibition of ER dependent NF-kappaB expression in ER expressing HAECT1 cells at 10 uM by luciferase reporter gene assay relative to E2; type: cell-based; settings: Homo sapiens
HAECT1 [2] = assay: Inhibition of ER dependent NF-kappaB expression in ER expressing HAECT1 cells at 1 uM by luciferase reporter gene assay; type: cell-based; settings: Homo sapiens
[3] = (§1) Inhibition of ER dependent NF-kappaB expression in ER expressing HAECT1 cells by luciferase reporter gene assay; type: cell-based; settings: Homo sapiens
HAECT1 [4] = assay: (§2) Inhibition of ER dependent creatine kinase expression in ER expressing HAECT1 cells; type: cell-based; settings: Homo sapiens
[5] = as §2; type: cell-based; settings: Homo sapiens
HAECT1 [6] = assay: Inhibition of ER dependent creatine kinase expression in ER expressing HAECT1 cells at 10 uM relative to E2; type: cell-based; settings: Homo sapiens
[7] = Inhibition of ER dependent IL6 expression in ER expressing HAECT1 cells; type: cell-based; settings: Homo sapiens
HAECT1 [8] = assay: Inhibition of ER dependent IL6 expression in ER expressing HAECT1 cells at 10 uM relative to E2; type: cell-based; settings: Homo sapiens
HAECT1 [9] = assay: as §1; type: cell-based; settings: Homo sapiens
Plasma [10] = assay: Stability in mouse plasma assessed as hydrolysis after 4 hr at 37 deg C; type: ADME, cell-free; design: scale not given: the % may be the effect or the level left
Plasma [11] = assay: Stability in mouse plasma assessed as hydrolysis after 24 hr at 37 deg C; type: ADME, cell-free; design: scale not given: the % may be the effect or the level left
Mus musculus [12] = assay: Inhibition of NFkB mediated RANTES gene expression in C57BL/6 mouse at 5 mg/kg/day, po after 5 weeks; type: functional; settings: C57BL/6, 840 h
Mus musculus [13] = assay: Inhibition of NFkB mediated VCAM gene expression in C57BL/6 mouse at 5 mg/kg/day, po after 5 weeks; type: functional; settings: C57BL/6, 840 h
Mus musculus [14] = assay: Inhibition of NFkB mediated MHC gene expression in C57BL/6 mouse at 5 mg/kg/day, po after 5 weeks; type: functional; settings: C57BL/6, 840 h
Mus musculus [15] = assay: Inhibition of NFkB mediated TNFalpha gene expression in C57BL/6 mouse at 5 mg/kg/day, po after 5 weeks; type: functional; settings: C57BL/6, 840 h
Mus musculus [16] = assay: Increase in uterine wet weight in C57BL/6 mouse at 5 mg/kg/day, po after 5 days relative to control; type: functional
Mus musculus [17] = assay: Inhibition of NFkB mediated RANTES gene expression in C57BL/6 mouse at 5 mg/kg/day, po after 5 weeks relative to 17-alpha-ethinyl-17beta-estradiol; type: functional; design: scale not given: the % may be the effect or the level left
Mus musculus [18] = assay: Inhibition of NFkB mediated VCAM gene expression in C57BL/6 mouse at 5 mg/kg/day, po after 5 weeks relative to 17-alpha-ethinyl-17beta-estradiol; type: functional; design: scale not given: the % may be the effect or the level left
Mus musculus [19] = assay: Inhibition of NFkB mediated MHC gene expression in C57BL/6 mouse at 5 mg/kg/day, po after 5 weeks relative to 17-alpha-ethinyl-17beta-estradiol; type: functional; design: scale not given: the % may be the effect or the level left
Mus musculus [20] = assay: Inhibition of NFkB mediated TNFalpha gene expression in C57BL/6 mouse at 5 mg/kg/day, po after 5 weeks relative to 17-alpha-ethinyl-17beta-estradiol; type: functional; design: scale not given: the % may be the effect or the level left
Rattus norvegicus [21] = assay: Inhibition of adjuvant-induced arthritis in Lewis rat assessed as improvement in synovial scoring at 0.3 mg/kg/day, po; type: functional; design: scale not given: the % may be the effect or the level left
Estrogen receptor = target: T1, Estrogen receptor (Homo sapiens, UniProt P03372); assay: Displacement of [3H]E2 from human ERalpha ligand binding domain
T1 sequence (P03372 whole entry): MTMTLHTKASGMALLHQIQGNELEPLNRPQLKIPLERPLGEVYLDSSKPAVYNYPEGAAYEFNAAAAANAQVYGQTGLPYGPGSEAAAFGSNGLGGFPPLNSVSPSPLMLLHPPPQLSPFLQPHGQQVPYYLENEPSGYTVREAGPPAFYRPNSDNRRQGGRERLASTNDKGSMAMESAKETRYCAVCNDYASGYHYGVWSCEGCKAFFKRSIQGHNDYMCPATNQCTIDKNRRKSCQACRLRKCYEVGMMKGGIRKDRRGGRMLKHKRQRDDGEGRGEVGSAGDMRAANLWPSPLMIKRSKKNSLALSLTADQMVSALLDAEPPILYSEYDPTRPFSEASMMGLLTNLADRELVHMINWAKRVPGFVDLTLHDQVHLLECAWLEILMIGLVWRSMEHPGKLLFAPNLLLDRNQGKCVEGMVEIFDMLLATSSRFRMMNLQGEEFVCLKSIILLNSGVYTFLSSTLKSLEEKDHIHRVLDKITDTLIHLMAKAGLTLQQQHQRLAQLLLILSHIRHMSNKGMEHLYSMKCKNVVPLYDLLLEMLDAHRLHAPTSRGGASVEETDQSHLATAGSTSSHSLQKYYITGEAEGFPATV

Estrogen receptor beta = Estrogen receptor beta (Homo sapiens, UniProt Q92731); assay: Displacement of [3H]E2 from human ERbeta ligand binding domain
Rattus norvegicus [22] = assay: Stimulation of uterine wet weight in Sprague-Dawley rat at 2 mg/kg/day; type: functional, organism-based
Rattus norvegicus [23] = assay: Inhibition of 17-alpha-ethinyl-17beta-estradiol induced uterine wet weight in Sprague-Dawley rat at 2 mg/kg/day; type: functional, organism-based

Sequence of Estrogen receptor beta (Q92731 whole entry, the tested form may be a part): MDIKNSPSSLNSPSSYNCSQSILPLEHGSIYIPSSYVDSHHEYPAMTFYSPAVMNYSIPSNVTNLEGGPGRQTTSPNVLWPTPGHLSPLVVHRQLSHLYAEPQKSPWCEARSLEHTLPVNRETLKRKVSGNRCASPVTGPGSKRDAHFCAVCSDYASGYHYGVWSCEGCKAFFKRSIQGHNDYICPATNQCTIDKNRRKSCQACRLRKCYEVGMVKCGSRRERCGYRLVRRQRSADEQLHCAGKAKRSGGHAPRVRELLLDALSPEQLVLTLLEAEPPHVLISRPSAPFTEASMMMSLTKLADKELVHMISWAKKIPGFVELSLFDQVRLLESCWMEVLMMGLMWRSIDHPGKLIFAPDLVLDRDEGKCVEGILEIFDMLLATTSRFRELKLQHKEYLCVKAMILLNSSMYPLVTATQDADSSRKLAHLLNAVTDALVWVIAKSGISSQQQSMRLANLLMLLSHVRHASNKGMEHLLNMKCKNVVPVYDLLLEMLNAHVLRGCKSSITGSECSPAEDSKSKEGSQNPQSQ

IC50 [3]	EC50 [5]	Compound	Efficacy (HAECT1 [1])	Activity (HAECT1 [4])	Efficacy (HAECT1 [6])	further results
–	–	CCOC(=O)C(C#N)C(c1cccc2ccccc12)c1ccnc2ccccc12 (configuration not stated)	4%	–	–	inhibition (HAECT1 [2]): 3%
–	–	CCOC(=O)C(C#N)C(c1ccccc1F)c1cccc2ccccc12 (configuration not stated)	32%	–	–	inhibition (HAECT1 [2]): 19%
792 nM	–	CCOC(=O)C(C#N)C(c1ccccc1)c1cccc2ccccc12 (configuration not stated)	96%	inactive	–	–
389 nM	–	CCOC(=O)C(C#N)C(c1ccc2ccccc2c1)c1cccc2ccccc12 (configuration not stated)	76%	inactive	–	–
139 nM	233 nM	CCOC(=O)C(C#N)C(c1ccccc1OC)c1cccc2ccccc12 (configuration not stated)	90%	–	32%	–
125 nM	259 nM	COc1ccccc1[C@H](c1cccc2ccccc12)[C@@](C)(C#N)C(=O)N1CCCCC1	92%	–	37%	–
1900 nM	–	N#CC(C(N)=O)C(c1cccc2ccccc12)c1cccc2ccccc12 (configuration not stated)	55%	inactive	–	–
550 nM	–	CCOC(=O)C(C#N)C(c1ccc(C)cc1)c1cccc2ccccc12 (configuration not stated)	64%	inactive	–	–
550 nM	–	CCOC(=O)C(C#N)C(c1cccc2ccccc12)c1cccc2ccccc12 (configuration not stated)	96%	inactive	–	IC50 [7]: 185 nM; Efficacy (HAECT1 [8]): 91%
206 nM	–	CCOC(=O)C(C)(C#N)C(c1cccc2ccccc12)c1cccc2ccccc12 (configuration not stated)	96%	inactive	–	–
–	–	CCOC(=O)C(C#N)C(c1ccc(OC)cc1OC)c1cccc2ccccc12 (configuration not stated)	–	inactive	–	Activity (HAECT1 [9]): inactive
119 nM	38 nM	COc1ccccc1C(c1cccc2ccccc12)C(C)(C#N)C(=O)OC(C)(C)C (configuration not stated)	94%	–	24%	Stability (Plasma [10]): 32%; Stability (Plasma [11]): 0%
327 nM	–	CCOC(=O)C(C)(C#N)C(c1ccccc1SC)c1cccc2ccccc12 (configuration not stated)	65%	inactive	–	–
23 nM	84 nM	COc1ccccc1[C@H](c1cccc2ccccc12)[C@@](C)(C#N)C(=O)N1CCN(c2cccc(Cl)c2C)CC1	99%	–	41%	inhibition in vivo at 5 mg/kg/day (Mus musculus [12]): 35%; inhibition in vivo at 5 mg/kg/day (Mus musculus [13]): 24%; inhibition in vivo at 5 mg/kg/day (Mus musculus [14]): 20%; inhibition in vivo at 5 mg/kg/day (Mus musculus [15]): 58%; Fold change (Mus musculus [16]): 1.1; Activity (Mus musculus [17]): 45%; Activity (Mus musculus [18]): 47%; Activity (Mus musculus [19]): 41%; Activity (Mus musculus [20]): 82%
105 nM	98 nM	CCOC(=O)C(C)(C#N)C(c1ccccc1OC)c1cccc2ccccc12 (configuration not stated)	110%	–	33%	–
268 nM	–	CCOC(=O)C(C)(C#N)C(c1ccccc1[N+](=O)[O-])c1cccc2ccccc12 (configuration not stated)	112%	inactive	–	–
–	–	N#CC(C(=O)O)C(c1cccc2ccccc12)c1cccc2ccccc12 (configuration not stated)	–	inactive	–	Activity (HAECT1 [9]): inactive
–	–	C#C[C@]1(O)CC[C@H]2[C@@H]3CCc4cc(O)ccc4[C@H]3CC[C@@]21C [ETHINYL ESTRADIOL]	–	–	–	inhibition in vivo at 5 mg/kg/day (Mus musculus [12]): 58%; inhibition in vivo at 5 mg/kg/day (Mus musculus [13]): 58%; inhibition in vivo at 5 mg/kg/day (Mus musculus [14]): 64%; inhibition in vivo at 5 mg/kg/day (Mus musculus [15]): 60%; Fold change (Mus musculus [16]): 4
118 nM	197 nM	CCOC(=O)C(C#N)C(c1ccccc1SC)c1cccc2ccccc12 (configuration not stated)	102%	–	24%	–
110 nM	240 nM	CCOC(=O)C(C#N)C(c1ccccc1C(F)(F)F)c1cccc2ccccc12 (configuration not stated)	106%	–	24%	–
–	–	CCOC(=O)C(C#N)C(c1cccc(OC)c1)c1cccc2ccccc12 (configuration not stated)	–	inactive	–	Activity (HAECT1 [9]): inactive
122 nM	–	COc1ccccc1[C@H](c1cccc2ccccc12)[C@@](C)(C#N)C(=O)N1CCC(c2cccc(C(F)(F)F)c2)CC1	94%	inactive	–	inhibition in vivo at 5 mg/kg/day (Mus musculus [12]): 50%; inhibition in vivo at 5 mg/kg/day (Mus musculus [13]): 48%; inhibition in vivo at 5 mg/kg/day (Mus musculus [14]): 42%; inhibition in vivo at 5 mg/kg/day (Mus musculus [15]): 59%; Fold change (Mus musculus [16]): 1; Activity (Rattus norvegicus [21]): 50%; IC50 (Estrogen receptor): 2430 nM; IC50 (Estrogen receptor beta): 1500 nM; Activity (Mus musculus [17]): 65%; Activity (Mus musculus [18]): 94%; Activity (Mus musculus [19]): 86%; Activity (Mus musculus [20]): 83%; Activity (Rattus norvegicus [22]): inactive; Activity (Rattus norvegicus [23]): inactive
